{"source": "paper PMC11123841", "about": "“Discovery and Synthesis of Hydroxy-L-Proline Blockers of the Neutral Amino Acid Transporters SLC1A4 (ASCT1) and SLC1A5 (ASCT2)” (Molecules, 2024)", "target": "T1, SLC38A2 (ATA2) (Homo sapiens, UniProt Q96QD8)", "T1 construct": "expressed in transfected cells; host or cells: Xenopus laevis oocytes (cRNA injection)", "T1 sequence (Q96QD8 1-506)": "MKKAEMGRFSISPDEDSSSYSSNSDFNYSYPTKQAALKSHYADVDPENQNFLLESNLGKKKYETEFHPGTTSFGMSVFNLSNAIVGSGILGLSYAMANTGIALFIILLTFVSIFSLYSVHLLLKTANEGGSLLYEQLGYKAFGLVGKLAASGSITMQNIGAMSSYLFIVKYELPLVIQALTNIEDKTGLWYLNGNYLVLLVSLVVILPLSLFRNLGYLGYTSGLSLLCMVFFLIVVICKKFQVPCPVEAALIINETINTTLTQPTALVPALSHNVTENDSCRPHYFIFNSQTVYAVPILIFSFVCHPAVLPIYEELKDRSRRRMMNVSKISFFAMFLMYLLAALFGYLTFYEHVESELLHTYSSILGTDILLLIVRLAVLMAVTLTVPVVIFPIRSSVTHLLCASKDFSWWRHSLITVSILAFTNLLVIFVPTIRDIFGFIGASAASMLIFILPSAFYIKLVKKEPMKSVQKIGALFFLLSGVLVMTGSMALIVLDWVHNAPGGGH", "test": "TEVC electrogenic coupled currents in oocytes", "format": "cell-based", "settings": "100 µM L-alanine, 3 µM BPOHP", "procedure": "Additionally, 4-HP applied at 1 mM was used to assess activity at the glutamate transporters SLC1A3 or SLC1A1.\nBPOHP activity was evaluated against the glutamate transporters paralogs within the SLC1A gene family (SLC1A 1–3) as well as at neutral amino acid transporters that share common ligand substrates with the SLC1 family including SLC38A1,2, and 4 (ATA1, ATA2, ATA3) and heteromeric transporters SLC7A10+SLC3A2 (asc-1/4f2).\nUptake was halted by washing 3 times with 4 °C ND96 buffer. Oocytes were then lysed in 0.1% Triton X-100, and radioactivity was counted via liquid scintillation. Dose response curves were generated by fitting fractional inhibition (I) to the expression I = Imax × [inhibitor]/([inhibitor] + IC50).\nTwo-electrode voltage clamp (TEVC) transporter currents were recorded with a GeneClamp 500 amplifier and Digidata 1320A analog–digital interface (Molecular Devices, San Jose, CA, USA). […] Data were acquired with Axograph (v1.7.6) and LabChart (v7) and analyzed with Kaleidagraph software (v4.1) (Synergy, Reading, PA, USA). Uncoupled anion currents associated with the transport of substrate and block of SLC1A4 or SLC1A5 mediated leak conductance were recorded in the presence of Ringer with 50% substitution of NaCl by NaSCN to amplify the non-transported anion conductance. […]", "note": "Entries after “also recorded” stand apart in the source; their conditions may differ.", "data": [{"smiles": "O=C(O)[C@H]1NC[C@@H](OCc2ccc(-c3ccccc3)cc2)[C@@H]1O", "note": "[14e]", "values": [{"measurement": "block of L-alanine current", "value": "no effect; also recorded: no discernible block; also recorded: no inhibition was detected"}]}]}
